Measurements from ChEMBL document CHEMBL5214945, “Identification of small-molecule inhibitors of the DNA repair proteins RuvAB from Pseudomonas aeruginosa” (Bioorg Med Chem, 2022).
Calls of active or inactive are those of the source. No cut-off for these calls is given here.

Assays:
Pseudomonas aeruginosa [1] = test: Binding affinity to CM5 chip immobilized Pseudomonas aeruginosa wild type RuvB expressed in Escherichia coli BL21(DE3) assessed as dissociation rate constant (kd) measured for 180 sec by surface plasmon resonance analysis
[2] = Binding affinity to CM5 chip immobilized Pseudomonas aeruginosa RuvB D114N mutant expressed in Escherichia coli BL21(DE3) assessed as dissociation constant measured for 180 sec by surface plasmon resonance analysis
Pseudomonas aeruginosa [3] = test: Binding affinity to CM5 chip immobilized Pseudomonas aeruginosa RuvB D114N mutant expressed in Escherichia coli BL21(DE3) assessed as association rate constant (ka) measured for 240 sec by surface plasmon resonance analysis
[4] = (§1) Inhibition of Pseudomonas aeruginosa RuvA/RuvB protein complex helicase activity expressed in Escherichia coli BL21(DE3) assessed as inhibition of HJ branch migration preincubated for 15 mins followed by substrate addition and measured after 1 hr using 5'-FAM labelled 5'-CACTGTGATGCACGATGATTGACGACAGTAGTCAGTGCTGCAGTGGTCAGGTGTC-3' HJ-a duplex DNA as substrate in presence of ATP by PAGE analysis
[5] = Binding affinity to CM5 chip immobilized Pseudomonas aeruginosa wild type RuvB expressed in Escherichia coli BL21(DE3) assessed as dissociation constant measured for 180 sec by surface plasmon resonance analysis
Pseudomonas aeruginosa [6] = test: Binding affinity to CM5 chip immobilized Pseudomonas aeruginosa RuvB D114N mutant expressed in Escherichia coli BL21(DE3) assessed as dissociation rate constant (kd) measured for 180 sec by surface plasmon resonance analysis
Pseudomonas aeruginosa [7] = test: Antimicrobial activity against Pseudomonas aeruginosa ATCC27853 assessed as colony formation at 50 uM preincubated for 1 hr followed by UV-light irradiation for 5 mins then culture on LB-agar plate for overnight by colony counting method; format: functional, organism-based
[8] = as §1, with “Bacillus subtilis” for “Pseudomonas aeruginosa”
Pseudomonas aeruginosa [9] = test: Binding affinity to CM5 chip immobilized Pseudomonas aeruginosa wild type RuvB expressed in Escherichia coli BL21(DE3) assessed as association rate constant (ka) measured for 240 sec by surface plasmon resonance analysis
[10] = Inhibition of HJ-DNA dependent Pseudomonas aeruginosa RuvB ATPase activity expressed in Escherichia coli BL21(DE3) assessed as inhibition of ATP hydrolysis preincubated with compound followed by ATP addition and measured after 1 hr by Kinase-Glo reagent based luminescence analysis
[11] = as §1, with “Thermus thermophilus” for “Pseudomonas aeruginosa”
Pseudomonas aeruginosa [12] = test: Inhibition of Pseudomonas aeruginosa RuvA expressed in Escherichia coli BL21(DE3) binding to HJ DNA assessed as reduction in RuvA-HJ DNA complex formation at 40 uM and measured after 15 mins using 5'-FAM labelled Holliday junction DNA as substrate by EMSA analysis
Pseudomonas aeruginosa [13] = test: Inhibition of Pseudomonas aeruginosa RuvA expressed in Escherichia coli BL21(DE3) binding to HJ DNA assessed as reduction in RuvA-HJ DNA complex formation at >10 uM and measured after 15 mins using 5'-FAM labelled Holliday junction DNA as substrate by EMSA analysis
Pseudomonas aeruginosa [14] = test: Inhibition of Pseudomonas aeruginosa RuvA expressed in Escherichia coli BL21(DE3) binding to HJ DNA assessed as reduction in RuvA-HJ DNA complex formation at >20 uM and measured after 15 mins using 5'-FAM labelled Holliday junction DNA as substrate by EMSA analysis
Pseudomonas aeruginosa [15] = test: Antimicrobial activity against Pseudomonas aeruginosa ATCC27853 assessed as colony formation at 2 uM preincubated for 1 hr followed by UV-light irradiation for 5 mins then culture on LB-agar plate for overnight by colony counting method; format: functional, organism-based

Structure (SMILES) | Kdiss (Pseudomonas aeruginosa [1]) | Kd [2] [nM] | Ka (Pseudomonas aeruginosa [3]) | IC50 [4] [nM] | Kd [5] [nM] | Kdiss (Pseudomonas aeruginosa [6]) | Activity (Pseudomonas aeruginosa [7]) | IC50 [8] [nM] | Ka (Pseudomonas aeruginosa [9]) | IC50 [10] [nM] | IC50 [11] [nM] | inhibition (Pseudomonas aeruginosa [12]) | inhibition (Pseudomonas aeruginosa [13]) | inhibition (Pseudomonas aeruginosa [14]) | Activity (Pseudomonas aeruginosa [15])
O=C(O[C@@H]1O[C@@H]2COC(=O)c3cc(O)c(O)c(O)c3-c3c(cc(O)c(O)c3O)C(=O)O[C@H]([C@H]1O)[C@@H]2O)c1cc(O)c(O)c(O)c1 [CORILAGIN] | 2.2 10^-3/s | 410 | 5.9 10^3/M/s | 398 | 130 | 2.4 10^-3/s | Active | 840 | 1.6 10^4/M/s | 2320 | 1110 |  |  |  | 
COC(=O)[C@]12CCC(C)(C)C[C@H]1[C@H]1C(=O)C=C3[C@@]4(C)C=C(C#N)C(=O)C(C)(C)[C@@H]4CC[C@@]3(C)[C@]1(C)CC2 [BARDOXOLONE METHYL] |  |  |  | 377 |  |  | Active |  |  |  |  | Active | Active |  | 
CC1=C(C)C(=O)C(CCCCCCCCCC[P+](c2ccccc2)(c2ccccc2)c2ccccc2)=CC1=O |  |  |  | 4640 |  |  |  | 13500 |  |  | 7900 | Active |  | Active | Active
